Reference: PubChem BioAssay AID248 (DTP/NCI, 2004)
Several values for one entry are separate records, joined by “and”; a condition that tells them apart may be missing. Equal values may be shown once. Inconclusive results and toxic doses are left out. Rule as the data show it: active = T/C of 150% or more; inactive = T/C below 125%.

Tested on: L1210 leukemia ip in BDF1 mice, survival T/C
Test: NCI In Vivo Anticancer Drug Screen. Data for tumor model L1210 Leukemia (intraperitoneal) in B6D2F1 (BDF1) mice
Conditions: endpoint: mean survival time, higher = longer survival
Method in brief: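 Tumor was transplanted into mice, which were then dosed with test compound or vehicle alone. Survival was recorded for each group, and the treated figure was expressed relative to the control figure.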

[1] = dose: 50.0 mg/kg/injection, schedule: Q01DX001 (ip), vehicle: saline
[2] = dose: 100.0 mg/kg/injection, schedule: Q01DX009 (ip), vehicle: saline

Measured: T/C

CN(C)CCCN1c2ccccc2Sc2ccc(Cl)cc21
inactive: dose: 0.77 mg/kg/injection, schedule: Q03HX024 (ip), vehicle: saline 104 % of control | dose: 0.78 mg/kg/injection, schedule: Q04DX024 (oral), vehicle: saline 98 % of control | dose: 1.55 mg/kg/injection, schedule: Q03HX024 (ip), vehicle: saline 109 % of control | dose: 1.56 mg/kg/injection, schedule: Q04DX003 (ip), vehicle: saline 101 % of control | dose: 1.56 mg/kg/injection, schedule: Q04DX024 (oral), vehicle: saline 90 % of control | dose: 2.0 mg/kg/injection, schedule: Q01DX009 (ip), vehicle: saline 95 % of control and 113 % of control | dose: 2.5 mg/kg/injection, schedule: Q01DX015 (ip), vehicle: saline 103 % of control | dose: 3.1 mg/kg/injection, schedule: Q03HX024 (ip), vehicle: saline 102 % of control | dose: 3.12 mg/kg/injection, schedule: Q01DX009 (ip), vehicle: saline 111 % of control | dose: 3.12 mg/kg/injection, schedule: Q04DX003 (ip), vehicle: saline 101 % of control | dose: 3.12 mg/kg/injection, schedule: Q04DX024 (oral), vehicle: saline 104 % of control | dose: 4.0 mg/kg/injection, schedule: Q01DX009 (ip), vehicle: saline 93 % of control and 106 % of control | dose: 5.0 mg/kg/injection, schedule: Q01DX015 (ip), vehicle: saline 105 % of control | dose: 6.2 mg/kg/injection, schedule: Q03HX024 (ip), vehicle: saline 109 % of control | dose: 6.25 mg/kg/injection, schedule: Q04DX003 (ip), vehicle: saline 102 % of control and 103 % of control | dose: 8.0 mg/kg/injection, schedule: Q01DX009 (ip), vehicle: saline 106 % of control and 120 % of control | dose: 8.0 mg/kg/injection, schedule: Q01DX015 (ip), vehicle: saline 104 % of control | dose: 10.0 mg/kg/injection, schedule: Q01DX009 (ip), vehicle: saline 111 % of control | dose: 10.0 mg/kg/injection, schedule: Q01DX015 (ip), vehicle: saline 105 % of control | dose: 12.0 mg/kg/injection, schedule: Q01DX015 (ip), vehicle: saline 115 % of control | dose: 12.4 mg/kg/injection, schedule: Q03HX024 (ip), vehicle: saline 116 % of control | dose: 12.5 mg/kg/injection, schedule: Q01DX001 (ip), vehicle: saline 94 % of control | dose: 12.5 mg/kg/injection, schedule: Q01DX009 (ip), vehicle: saline 110 % of control and 102 % of control | dose: 12.5 mg/kg/injection, schedule: Q04DX003 (ip), vehicle: saline 109 % of control [middle of 4 runs] | dose: 16.0 mg/kg/injection, schedule: Q01DX009 (ip), vehicle: saline 87 % of control | dose: 18.0 mg/kg/injection, schedule: Q01DX015 (ip), vehicle: saline 121 % of control | dose: 18.75 mg/kg/injection, schedule: Q01DX001 (ip), vehicle: saline 113 % of control and 123 % of control | dose: 18.75 mg/kg/injection, schedule: Q01DX009 (ip), vehicle: saline 101 % of control | dose: 20.0 mg/kg/injection, schedule: Q01DX009 (ip), vehicle: saline 108 % of control | dose: 20.0 mg/kg/injection, schedule: Q01DX Z (ip), vehicle: methylcellulose (MC) 108 % of control | dose: 20.0 mg/kg/injection, schedule: Q04DX003 (ip), vehicle: saline 115 % of control | dose: 25.0 mg/kg/injection, schedule: Q01DX001 (ip), vehicle: saline 101 % of control | dose: 25.0 mg/kg/injection, schedule: Q01DX009 (ip), vehicle: saline 105 % of control | dose: 25.0 mg/kg/injection, schedule: Q04DX003 (ip), vehicle: saline 109 % of control [middle of 4 runs] | dose: 26.0 mg/kg/injection, schedule: Q04DX003 (ip), vehicle: saline 121 % of control | dose: 27.0 mg/kg/injection, schedule: Q01DX015 (ip), vehicle: saline 106 % of control | dose: 30.0 mg/kg/injection, schedule: Q01DX Z (ip), vehicle: methylcellulose (MC) 117 % of control | dose: 37.5 mg/kg/injection, schedule: Q01DX001 (ip), vehicle: saline 120 % of control | dose: 37.5 mg/kg/injection, schedule: Q01DX009 (ip), vehicle: saline 120 % of control | dose: 40.0 mg/kg/injection, schedule: Q01DX015 (ip), vehicle: saline 112 % of control | dose: 40.0 mg/kg/injection, schedule: Q04DX003 (ip), vehicle: saline 106 % of control | dose: 45.0 mg/kg/injection, schedule: Q01DX Z (ip), vehicle: methylcellulose (MC) 100 % of control | [1] 108 % of control | dose: 50.0 mg/kg/injection, schedule: Q01DX009 (ip), vehicle: saline 121 % of control | dose: 50.0 mg/kg/injection, schedule: Q04DX003 (ip), vehicle: saline 101 % of control and 113 % of control | dose: 60.0 mg/kg/injection, schedule: Q01DX015 (ip), vehicle: saline 117 % of control | dose: 67.5 mg/kg/injection, schedule: Q01DX Z (ip), vehicle: methylcellulose (MC) 99 % of control | dose: 75.0 mg/kg/injection, schedule: Q04DX003 (ip), vehicle: saline 116 % of control | dose: 90.0 mg/kg/injection, schedule: Q01DX015 (ip), vehicle: saline 104 % of control | [2] 89 % of control | dose: 100.0 mg/kg/injection, schedule: Q04DX003 (ip), vehicle: saline 99 % of control

CC(C=O)CC1CCCCC1 (stereo unspecified)
inactive: dose: 100.0 mg/kg/injection, schedule: Q01DX009 (ip), vehicle: saline with Tween-80 97 % of control | dose: 100.0 mg/kg/injection, schedule: Q04DX003 (ip), vehicle: saline with Tween-80 95 % of control | dose: 200.0 mg/kg/injection, schedule: Q01DX009 (ip), vehicle: saline with Tween-80 95 % of control | dose: 200.0 mg/kg/injection, schedule: Q04DX003 (ip), vehicle: saline with Tween-80 97 % of control | dose: 400.0 mg/kg/injection, schedule: Q01DX009 (ip), vehicle: saline with Tween-80 95 % of control | dose: 400.0 mg/kg/injection, schedule: Q04DX003 (ip), vehicle: saline with Tween-80 95 % of control

CN(C)Cc1cccc(N)c1
inactive: dose: 12.5 mg/kg/injection, schedule: Q01DX009 (ip), vehicle: water 102 % of control | dose: 25.0 mg/kg/injection, schedule: Q01DX009 (ip), vehicle: water 100 % of control | dose: 25.0 mg/kg/injection, schedule: Q04DX003 (ip), vehicle: water 104 % of control | dose: 50.0 mg/kg/injection, schedule: Q01DX009 (ip), vehicle: water 100 % of control | dose: 50.0 mg/kg/injection, schedule: Q04DX003 (ip), vehicle: water 95 % of control | dose: 100.0 mg/kg/injection, schedule: Q04DX003 (ip), vehicle: water 96 % of control and 102 % of control

Cc1cccc(NC(=S)Nc2ccc(-c3ccc(NC(=S)Nc4cccc(C)c4)cc3)cc2)c1
inactive: dose: 100.0 mg/kg/injection, schedule: Q01DX009 (ip), vehicle: other 104 % of control | dose: 200.0 mg/kg/injection, schedule: Q01DX009 (ip), vehicle: other 106 % of control | dose: 400.0 mg/kg/injection, schedule: Q01DX009 (ip), vehicle: other 96 % of control

COc1ccc(/C=N\NC(=O)CCCC(=O)N/N=C/c2ccc(OC)c(OC)c2)cc1OC
inactive: [1] 100 % of control | dose: 100.0 mg/kg/injection, schedule: Q01DX001 (ip), vehicle: saline 100 % of control | dose: 200.0 mg/kg/injection, schedule: Q01DX001 (ip), vehicle: saline 93 % of control | dose: 400.0 mg/kg/injection, schedule: Q01DX001 (ip), vehicle: saline 100 % of control

CC(C)(C)NC(N)=O
inactive: [2] 100 % of control | dose: 200.0 mg/kg/injection, schedule: Q01DX009 (ip), vehicle: saline 97 % of control | dose: 400.0 mg/kg/injection, schedule: Q01DX009 (ip), vehicle: saline 100 % of control

N=c1c(-c2ccccc2)cc2ccccc2n1O
inactive: dose: 75.0 mg/kg/injection, schedule: Q01DX001 (ip), vehicle: other 103 % of control | dose: 150.0 mg/kg/injection, schedule: Q01DX001 (ip), vehicle: other 101 % of control | dose: 300.0 mg/kg/injection, schedule: Q01DX001 (ip), vehicle: other 98 % of control
